From US20230019491A1, “PYRIMIDINE TBK/IKKe INHIBITOR COMPOUNDS AND USES THEREOF” (Merck Patent GmbH, priority 2017, published 2023)

What was measured:
TBK1 = molecular target: T1, TBK1 (Homo sapiens, UniProt Q9UHD2); experiment: TBK biochemical assay; conditions: 10 point 1:4 dose response, 30 uM top concentration, 90 min at 25° C., LabChip EZ Reader II; read-out: TBK1_IC50
T1 sequence (Q9UHD2 1-729): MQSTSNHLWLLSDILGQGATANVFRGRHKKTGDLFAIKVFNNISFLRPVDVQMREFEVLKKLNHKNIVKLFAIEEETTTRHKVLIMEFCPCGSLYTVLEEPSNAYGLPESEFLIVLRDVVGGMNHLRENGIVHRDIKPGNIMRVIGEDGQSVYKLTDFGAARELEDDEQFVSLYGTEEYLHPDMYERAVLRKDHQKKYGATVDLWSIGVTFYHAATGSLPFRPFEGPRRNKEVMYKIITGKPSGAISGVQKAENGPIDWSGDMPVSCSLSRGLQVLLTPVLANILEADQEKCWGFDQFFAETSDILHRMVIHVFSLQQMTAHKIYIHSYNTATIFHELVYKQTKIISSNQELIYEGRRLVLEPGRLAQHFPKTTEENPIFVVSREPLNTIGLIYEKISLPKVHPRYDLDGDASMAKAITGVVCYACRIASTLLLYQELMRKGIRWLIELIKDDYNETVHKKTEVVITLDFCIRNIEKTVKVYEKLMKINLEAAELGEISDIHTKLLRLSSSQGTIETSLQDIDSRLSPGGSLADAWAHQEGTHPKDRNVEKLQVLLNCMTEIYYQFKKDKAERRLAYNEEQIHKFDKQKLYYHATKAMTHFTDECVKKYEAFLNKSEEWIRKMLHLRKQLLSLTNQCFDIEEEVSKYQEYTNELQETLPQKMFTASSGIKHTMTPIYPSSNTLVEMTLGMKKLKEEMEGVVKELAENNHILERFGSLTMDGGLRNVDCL
How it was run: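 Substrate and product were separated and quantified by microfluidic mobility-shift read (LabChip). 10 uM staurosporine served as the full-inhibition control, and the reference compound was tested from 1 uM final.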

IKKε = molecular target: T2, IKKε (Homo sapiens, UniProt Q14164); experiment: IKKε biochemical assay; conditions: 10 point 1:4 dose response, 30 uM top concentration, 90 min at 25° C., LabChip EZ Reader II; read-out: IKKε_IC50
T2 sequence (Q14164 1-716): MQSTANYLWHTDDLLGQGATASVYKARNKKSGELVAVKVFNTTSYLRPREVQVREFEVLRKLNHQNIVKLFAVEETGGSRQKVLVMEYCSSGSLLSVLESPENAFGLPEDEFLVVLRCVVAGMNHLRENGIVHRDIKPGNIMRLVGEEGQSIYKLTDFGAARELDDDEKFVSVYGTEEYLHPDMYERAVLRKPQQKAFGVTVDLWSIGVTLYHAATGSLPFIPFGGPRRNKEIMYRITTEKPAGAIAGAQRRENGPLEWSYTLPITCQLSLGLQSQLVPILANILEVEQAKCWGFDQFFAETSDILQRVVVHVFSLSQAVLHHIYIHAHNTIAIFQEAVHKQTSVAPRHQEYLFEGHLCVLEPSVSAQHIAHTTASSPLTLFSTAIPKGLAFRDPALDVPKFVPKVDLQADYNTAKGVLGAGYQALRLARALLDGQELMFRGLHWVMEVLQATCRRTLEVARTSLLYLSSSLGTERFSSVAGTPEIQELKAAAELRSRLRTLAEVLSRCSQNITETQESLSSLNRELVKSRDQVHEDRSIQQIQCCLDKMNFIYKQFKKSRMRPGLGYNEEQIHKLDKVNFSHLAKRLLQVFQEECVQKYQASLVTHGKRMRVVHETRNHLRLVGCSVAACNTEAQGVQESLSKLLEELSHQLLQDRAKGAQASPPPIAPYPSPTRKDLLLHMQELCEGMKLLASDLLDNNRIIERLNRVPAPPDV
How it was run: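 Compounds in 1% DMSO final were incubated with IKKε enzyme and substrate at 25° C. for 90 min, then stopped. Substrate and product peaks were resolved by LabChip EZ Reader II mobility-shift read-out. Staurosporine at 10 uM final served as the full-inhibition control.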

| IC50 (TBK1) [nM] | IC50 (IKKε) [nM] | SMILES |
| --- | --- | --- |
| < 100 | < 100 | C[C@H](O)C(=O)N1CCC(Oc2ccc(-c3ccnc(Nc4ccc(N5CCN(C6COC6)CC5)cc4)n3)cc2C#N)C(F)(F)C1 (stereo partly drawn) [Example 138, 2-([3,3-difluoro-1-[(2S)-2-hydroxypropanoyl]piperidin-4-yl]oxy)-5-[2-([4-[4-(oxetan-3-yl)piperazin-1-yl]phenyl]amino)pyrimidin-4-yl]benzonitrile] |
| < 100 | < 100 | C[C@@H](O)C(=O)N1CCC(Oc2ccc(-c3ccnc(Nc4ccc(C5CCN(C6COC6)CC5)cc4)n3)cc2C#N)C(F)(F)C1 (stereo partly drawn) [Example 226, 2-([33-difluoro-1-[(2R)-2-hydroxypropanoyl]piperidin-4-yl]oxy)-5-[2-([4-[1-(oxetan-3-yl)piperidin-4-yl]phenyl]amino)pyrimidin-4-yl]benzonitrile] |
| < 100 | < 100 | C[C@H](O)C(=O)N1CCC(Oc2ccc(-c3ccnc(Nc4cccc(C5CCN(C6COC6)CC5)c4)n3)cc2C#N)C(F)(F)C1 (stereo partly drawn) [Example 224, 2-[3,3-Difluoro-1-((S)-2-hydroxy-propionyl)-piperidin-4-yloxy]-5-{2-[3-(1-oxetan-3-yl-piperidin-4-yl)-phenylamino]-pyrimidin-4-yl}-benzonitrile] |
| < 100 | < 100 | C[C@H](O)C(=O)N1CCC(Oc2ccc(-c3ccnc(Nc4ccc(C5CCN(C6COC6)C5)cc4)n3)cc2C#N)C(F)(F)C1 (stereo partly drawn) [Example 213, 2-([3,3-difluoro-1-[(2S)-2-hydroxypropanoyl]piperidin-4-yl]oxy)-5-[2-([4-[1-(oxetan-3-yl)pyrrolidin-3-yl]phenyl]amino)pyrimidin-4-yl]benzonitrile] |
| < 100 | < 100 | N#Cc1cc(-c2ccnc(Nc3ccccn3)n2)ccc1OC1CCN(C(=O)[C@@H](O)CO)CC1(F)F (stereo partly drawn) [Example 243, 2-[1-((S)-2,3-Dihydroxy-propionyl)-3,3-difluoro-piperidin-4-yloxy]-5-[2-(pyridin-2-ylamino)-pyrimidin-4-yl]-benzonitrile] |
| 100 to 1000 | 1000 to 5000 | COc1nc(Nc2nccc(-c3cc(C#N)c(OC4CCN(C(=O)[C@H](C)O)CC4(F)F)cn3)n2)ccc1N1CCN(C2COC2)CC1 (stereo partly drawn) [Example 303, 5-([33-difluoro-1-[(2S)-2-hydroxypropanoyl]piperidin-4-yl]oxy)-2-[2-([6-methoxy-5-[4-(oxetan-3-yl)piperazin-1-yl]pyridin-2-yl]amino)pyrimidin-4-yl]pyridine-4-carbonitrile] |
| 1000 to 5000 | > 5000 | COc1cc(C(=O)N(C)C)cnc1Nc1nccc(-c2ccc(OC3CCOCC3)c(C#N)c2)n1 [Example 58, 6-([4-[3-cyano-4-(oxan-4-yloxy)phenyl]pyrimidin-2-yl]amino)-5-methoxy-N,N-dimethylpyridine-3-carboxamide] |
| < 100 | < 100 | COc1nc(Nc2nccc(-c3cnc(OC4CCN(C(=O)[C@H](C)O)CC4(F)F)c(C#N)c3)n2)ccc1N1CCN(C2COC2)CC1 (stereo partly drawn) [Example 305, 2-([3,3-difluoro-1-[(2S)-2-hydroxypropanoyl]piperidin-4-yl]oxy)-5-[2-([6-methoxy-5-[4-(oxetan-3-yl)piperazin-1-yl]pyridin-2-yl]amino)pyrimidin-4-yl]pyridine-3-carbonitrile] |
| < 100 | < 100 | COc1nc(Nc2nccc(-c3ccc(OC4CCN(C(=O)[C@@H](C)CO)CC4(F)F)c(C#N)c3)n2)ccc1N1CCN(C2COC2)CC1 (stereo partly drawn) [Example 252, 2-[3,3-Difluoro-1-((S)-3-hydroxy-2-methyl-propionyl)-piperidin-4-yloxy]-5-{2-[6-methoxy-5-(4-oxetan-3-yl-piperazin-1-yl)-pyridin-2-ylamino]-pyrimidin-4-yl}-benzonitrile] |
| < 100 | < 100 | COc1nc(Nc2nccc(-c3ccc(OC4CCN(C(=O)c5cnco5)CC4)c(C#N)c3)n2)ccc1N1CCN(C)CC1 [Example 92, 5-(2-[[6-methoxy-5-(4-methylpiperazin-1-yl)pyridin-2-yl]amino]pyrimidin-4-yl)-2-([1-[(1,3-oxazol-5-yl)carbonyl]piperidin-4-yl]oxy)benzonitrile] |
| < 100 | < 100 | C[C@H](O)C(=O)N1CCC(Oc2ccc(-c3ccnc(Nc4ccccn4)n3)cc2C#N)C(F)(F)C1 (stereo partly drawn) [Example 219, 2-(3,3-difluoro-1-((S)-2-hydroxypropanoyl)piperidin-4-yloxy)-5-(2-(pyridin-2-ylamino)pyrimidin-4-yl)benzonitrile] |
| < 100 | < 100 | COc1nc(Nc2nccc(-c3ccc(O[C@H]4CCNC[C@H]4F)c(C#N)c3)n2)ccc1C(=O)N(C)C [Example 74, 6-[[4-(3-cyano-4-[[(3R,4S)-3-fluoropiperidin-4-yl]oxy]phenyl)pyrimidin-2-yl]amino]-2-methoxy-N,N-dimethylpyridine-3-carboxamide] |
| < 100 | < 100 | COc1nc(Nc2nccc(-c3ccc(OC4CCN(C(=O)C(C)O)CC4(F)F)c(C#N)c3)n2)ccc1N1CCN(C2COC2)CC1 (stereo in doubt) [Example 261, 2-([3,3-difluoro-1-[(2S)-2-hydroxypropanoyl]piperidin-4-yl]oxy)-5-[2-([6-methoxy-5-[4-(oxetan-3-yl)piperazin-1-yl]pyridin-2-yl]amino)pyrimidin-4-yl]benzonitrile] |
| < 100 | < 100 | C[C@@H](O)C(=O)N1CCC(Oc2ccc(-c3ccnc(Nc4cccc(C5CCN(C6COC6)CC5)c4)n3)cc2C#N)C(F)(F)C1 (stereo partly drawn) [Example 225, 2-[3,3-Difluoro-1-((R)-2-hydroxy-propionyl)-piperidin-4-yloxy]-5-{2-[3-(1-oxetan-3-yl-piperidin-4-yl)-phenylamino]-pyrimidin-4-yl}-benzonitrile] |
| < 100 | < 100 | COc1nc(Nc2nccc(-c3ccc(OC4CCN(C)C4)c(C#N)c3)n2)ccc1N1CCN(C)CC1 (centres unmarked) [Example 87, 5-(2-[[6-methoxy-5-(4-methylpiperazin-1-yl)pyridin-2-yl]amino]pyrimidin-4-yl)-2-[(1-methylpyrrolidin-3-yl)oxy]benzonitrile] |
| < 100 | < 100 | COc1nc(C(=O)N(C)C)ccc1Nc1nccc(-c2ccc(OC3CCOCC3)c(C#N)c2)n1 [Example 48, 5-([4-[3-cyano-4-(oxan-4-yloxy)phenyl]pyrimidin-2-yl]amino)-6-methoxy-N,N-dimethylpyridine-2-carboxamide] |
| 100 to 1000 | 100 to 1000 | C[C@@H](O)C(=O)N1CC(Oc2ccc(-c3ccnc(Nc4ccc(N5CCN(C6COC6)CC5)cc4)n3)cc2C#N)C1 [Example 173, 2-([1-[(2R)-2-hydroxypropanoyl]azetidin-3-yl]oxy)-5-[2-([4-[4-(oxetan-3-yl)piperazin-1-yl]phenyl]amino)pyrimidin-4-yl]benzonitrile] |

| SMILES | IC50 (TBK1) [nM] | IC50 (IKKε) [nM] |
| --- | --- | --- |
| COc1nc(Nc2nccc(-c3ccc(OC4CCOCC4)c(C#N)c3)n2)ccc1C(=O)N1C2CCCC1COC2 [Example 16, 5-(2-[[6-methoxy-5-([3-oxa-9-azabicyclo[3.3.1]nonan-9-yl]carbonyl)pyridin-2-yl]amino]pyrimidin-4-yl)-2-(oxan-4-yloxy)benzonitrile] | < 100 | < 100 |
| COc1cc(Nc2nccc(-c3ccc(OC4CCN(C(=O)[C@H](C)O)CC4)c(C#N)c3)n2)cnc1N1CCN(C2COC2)CC1 [Example 320, 2-([1-[(2S)-2-hydroxypropanoyl]piperidin-4-yl]oxy)-5-[2-([5-methoxy-6-[4-(oxetan-3-yl)piperazin-1-yl]pyridin-3-yl]amino)pyrimidin-4-yl]benzonitrile] | < 100 | < 100 |
